Laboratory results published in EP2687213B1, “Solid forms comprising (+)-2-[1-(3-ethoxy-4-methoxyphenyl)-2-methylsulfonylethyl]-4-acetylaminoisoindoline-1,3-dione, compositions thereof, and uses thereof” (CELGENE CORPORATION, priority 2008, dated 2009).

Assays:
human PDE2 = human PDE2 (Homo sapiens, UniProt O00408); assay: PDE2 enzyme assay; type: biochemical; details: from PDE inhibition data of Table 1
[1] = biological target: T1, PDE6 from bovine retinal rod outer segments (Bos taurus, UniProt P11541+P23439); assay: PDE6 enzyme assay; type: biochemical; details: from PDE inhibition data of Table 1
T1 construct: PDE6 from bovine retinal rod outer segments; from tissue; host or cells: bovine retinal rod outer segments
T1 sequence (P11541 2-856 limits assumed): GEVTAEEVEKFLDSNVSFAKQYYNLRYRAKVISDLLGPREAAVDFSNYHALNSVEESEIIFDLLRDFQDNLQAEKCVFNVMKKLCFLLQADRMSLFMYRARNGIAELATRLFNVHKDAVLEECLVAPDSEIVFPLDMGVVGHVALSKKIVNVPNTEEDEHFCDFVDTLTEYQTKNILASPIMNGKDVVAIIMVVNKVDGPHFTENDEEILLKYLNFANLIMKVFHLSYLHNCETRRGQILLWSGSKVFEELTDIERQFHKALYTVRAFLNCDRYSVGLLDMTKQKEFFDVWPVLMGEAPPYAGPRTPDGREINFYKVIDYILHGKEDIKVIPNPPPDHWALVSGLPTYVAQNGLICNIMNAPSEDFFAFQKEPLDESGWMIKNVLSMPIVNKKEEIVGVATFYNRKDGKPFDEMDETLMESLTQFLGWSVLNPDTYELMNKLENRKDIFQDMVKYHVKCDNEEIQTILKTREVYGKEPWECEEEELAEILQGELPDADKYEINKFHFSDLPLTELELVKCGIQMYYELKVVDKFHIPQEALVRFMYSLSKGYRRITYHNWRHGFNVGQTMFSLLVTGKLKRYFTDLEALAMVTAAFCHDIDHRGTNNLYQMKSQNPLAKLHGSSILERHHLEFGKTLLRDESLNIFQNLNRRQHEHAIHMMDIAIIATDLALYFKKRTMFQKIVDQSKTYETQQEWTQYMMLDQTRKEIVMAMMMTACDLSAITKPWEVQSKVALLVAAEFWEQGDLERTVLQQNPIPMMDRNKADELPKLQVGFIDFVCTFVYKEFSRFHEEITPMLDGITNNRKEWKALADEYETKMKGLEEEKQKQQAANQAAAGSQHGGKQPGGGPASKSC
T1 sequence (P23439 2-850 limits assumed): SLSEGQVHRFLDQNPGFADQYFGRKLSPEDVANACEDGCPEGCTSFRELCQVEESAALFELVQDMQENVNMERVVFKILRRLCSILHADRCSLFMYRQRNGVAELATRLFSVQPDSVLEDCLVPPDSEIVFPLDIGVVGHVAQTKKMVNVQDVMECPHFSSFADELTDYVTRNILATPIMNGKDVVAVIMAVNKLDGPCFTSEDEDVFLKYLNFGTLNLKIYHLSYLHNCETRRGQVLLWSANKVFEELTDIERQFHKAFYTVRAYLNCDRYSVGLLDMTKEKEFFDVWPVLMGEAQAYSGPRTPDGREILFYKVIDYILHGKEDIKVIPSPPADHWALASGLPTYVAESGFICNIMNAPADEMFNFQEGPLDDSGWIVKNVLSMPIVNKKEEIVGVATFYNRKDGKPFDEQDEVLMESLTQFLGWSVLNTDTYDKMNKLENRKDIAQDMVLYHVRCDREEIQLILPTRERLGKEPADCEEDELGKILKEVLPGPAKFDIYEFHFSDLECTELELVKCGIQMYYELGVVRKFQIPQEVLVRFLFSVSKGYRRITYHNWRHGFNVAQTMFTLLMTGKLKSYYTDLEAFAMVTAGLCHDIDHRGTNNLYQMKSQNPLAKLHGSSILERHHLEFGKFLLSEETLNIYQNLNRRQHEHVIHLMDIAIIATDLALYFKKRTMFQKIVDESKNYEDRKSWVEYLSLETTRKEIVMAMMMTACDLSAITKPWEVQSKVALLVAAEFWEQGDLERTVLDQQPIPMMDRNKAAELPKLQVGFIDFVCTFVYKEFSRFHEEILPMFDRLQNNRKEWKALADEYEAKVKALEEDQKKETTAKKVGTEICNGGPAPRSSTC

[2] = test system: subjects with moderate to severe plaque-type psoriasis; assay: Phase 2 randomized double-blind placebo-controlled study in moderate to severe plaque-type psoriasis; type: in vivo, human
Procedure: This phase 2, multicenter, randomized, double-blind, placebo-controlled, parallel-group, dose-comparison study evaluated the efficacy and safety of Compound A in subjects with moderate to severe plaque-type psoriasis who were candidates for systemic therapy.
This study included a 12-week treatment phase followed by a 4-week observational follow-up phase. A total of 260 subjects were randomized to receive Compound A 20 mg BID, Compound A 20 mg QD, or placebo for 12 weeks. The primary endpoint for this study was the proportion of subjects treated with Compound A who achieved a 75% reduction in Psoriasis Area and Severity Index score ("PASI-75") at week 12/last treatment in reference to the baseline visit. Last treatment is defined as the last PASI assessment completed during the 12-week treatment phase.

human PDE2, sequence (O00408 whole entry): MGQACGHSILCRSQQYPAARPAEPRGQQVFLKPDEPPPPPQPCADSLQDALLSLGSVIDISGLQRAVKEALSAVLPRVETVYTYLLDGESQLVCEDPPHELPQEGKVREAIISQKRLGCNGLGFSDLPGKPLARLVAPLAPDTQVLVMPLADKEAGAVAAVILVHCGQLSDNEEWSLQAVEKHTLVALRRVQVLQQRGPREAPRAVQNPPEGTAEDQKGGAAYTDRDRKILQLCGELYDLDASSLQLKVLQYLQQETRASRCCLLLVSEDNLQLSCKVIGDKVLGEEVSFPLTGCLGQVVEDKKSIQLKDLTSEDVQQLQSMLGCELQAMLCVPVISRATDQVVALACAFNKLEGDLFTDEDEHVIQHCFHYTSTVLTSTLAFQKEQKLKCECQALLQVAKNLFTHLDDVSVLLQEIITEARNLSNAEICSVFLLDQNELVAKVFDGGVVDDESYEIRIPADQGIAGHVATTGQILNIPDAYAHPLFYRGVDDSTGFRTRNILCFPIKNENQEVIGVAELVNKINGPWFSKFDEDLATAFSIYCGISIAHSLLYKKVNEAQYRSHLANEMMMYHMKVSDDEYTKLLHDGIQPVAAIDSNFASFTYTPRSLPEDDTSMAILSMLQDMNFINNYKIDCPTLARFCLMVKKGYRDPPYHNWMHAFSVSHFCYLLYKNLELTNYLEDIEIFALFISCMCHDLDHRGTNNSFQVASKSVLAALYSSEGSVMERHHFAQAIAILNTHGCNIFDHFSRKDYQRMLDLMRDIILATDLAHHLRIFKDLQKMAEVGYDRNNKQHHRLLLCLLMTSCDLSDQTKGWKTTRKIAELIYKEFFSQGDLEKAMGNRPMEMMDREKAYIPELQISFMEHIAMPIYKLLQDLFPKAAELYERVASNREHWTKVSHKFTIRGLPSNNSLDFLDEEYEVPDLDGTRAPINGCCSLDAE

Q: Which results are given for `CCOc1cc(C(CS(C)(=O)=O)N2C(=O)c3cccc(NC(C)=O)c3C2=O)ccc1OC` (single isomer, unassigned; (+)) [Compound A, (+)-2-[1-(3-ethoxy-4-methoxyphenyl)-2-methylsulfonylethyl]-4-acetylaminoisoindoline-1,3-dione]?
A: PDE Specificity Ratio PDE4/PDE2 (human PDE2): >10000 fold; PDE Specificity Ratio PDE4/PDE6 [1]: >40000 fold; psoriasis flare during the observational follow-up period ([2]; 20 mg BID group, 4-week follow-up): No subjects; study drug-related serious adverse events ([2]; 20 mg BID or 20 mg QD, 12 weeks): No study drug-related serious adverse events were reported; tolerability and safety (overall conclusion) ([2]; 12 weeks of treatment): well tolerated and safe
